Values joined by “and” are separate entries in the source; they are usually repeats but may differ in a detail not shown here. Equal entries are not always repeated.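 Each compound was tested at five concentrations against cells in 96-well plates for 48 hours. GI50 is the concentration that inhibits growth by half. At the TGI there is no net growth.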
Assays:
Experiment in all cases: NCI anticancer screen, dose series, 48 h
SF-539 CNS = tested on: SF-539 CNS
MDA-N = tested on: MDA-N
HCC-2998 colon = tested on: HCC-2998 colon
786-0 renal = tested on: 786-0 renal
MOLT-4 leukemia = tested on: MOLT-4 leukemia
MDA-MB-435 = tested on: MDA-MB-435
KM12 colon = tested on: KM12 colon
ACHN renal = tested on: ACHN renal
SF-295 CNS = tested on: SF-295 CNS
SNB-78 CNS = tested on: SNB-78 CNS
KM20L2 colon = tested on: KM20L2 colon

SMILES	TGI (SF-539 CNS)	TGI (MDA-N) [µM]	TGI (HCC-2998 colon) [µM]	TGI (786-0 renal) [µM]	TGI (MOLT-4 leukemia)	TGI (MDA-MB-435) [µM]	TGI (KM12 colon)	TGI (ACHN renal) [µM]	TGI (SF-295 CNS)	GI50 (MOLT-4 leukemia) [µM]	TGI (SNB-78 CNS) [µM]	TGI (KM20L2 colon) [µM]	GI50 (SF-539 CNS) [µM]	GI50 (HCC-2998 colon) [µM]	GI50 (SF-295 CNS) [µM]	GI50 (MDA-MB-435) [µM]	GI50 (KM12 colon) [µM]	GI50 (ACHN renal) [µM]	GI50 (SNB-78 CNS) [µM]
O=P(O)(O)OP(=O)(O)O	> 100 µM	> 100	> 100	> 100	> 100 µM	> 100	> 100 µM	> 100											
NC(CCc1ccccc1)(C(=O)O)c1ccccc1 (configuration not stated)		> 100	> 100	> 100	> 100 µM	> 100	> 100 µM	> 100	> 100 µM										
COC(=O)c1c(O)ccc2c1c1c(n2Cc2ccccn2)C(=O)c2ccccc2C1	> 100 µM	> 100		> 100	> 100 µM	> 100	> 100 µM		> 100 µM										
CC(Br)C(=O)c1ccc2cc(Br)c3ccccc3c2c1 (configuration not stated)		27	29.6	11.7		29.9	32.5 µM	31.4	31.4 µM										
CCOc1cc(NC(C)=O)ccc1C(=O)N/N=C/c1ccco1	> 100 µM	> 100	> 100	> 100	74.6 µM	> 100	> 100 µM	> 100	> 100 µM										
CCCCCCOC(=O)C(N)Cc1ccc(OC)cc1 (configuration not stated)	> 100 µM			> 100	> 100 µM	> 100	> 100 µM	> 100	> 100 µM										
Cc1cc(N2CCOCC2)nc(N(CCCNc2ccnc3cc(Cl)ccc23)Cc2ccc3c(c2)OCO3)n1					2.97 µM					0.598									
CN(C)C/C=C(/c1ccc(Br)cc1)c1cccnc1	> 100 µM	> 100	29.8	> 100	> 100 µM	> 100	> 100 µM	> 100	63.5 µM										
CCN(CC)/[N+]([O-])=N/OC	> 100 µM		> 100		> 100 µM		> 100 µM	> 100	> 100 µM		> 100	> 100							
Cc1cc(O)c2c(c1O)C(=O)c1c(O)ccc(O)c1C2=O	> 100 µM	> 100	> 100	> 100	> 100 µM	> 100	> 100 µM	> 100	> 100 µM										
CC(C)(C)c1ccc(O)c(Br)c1	> 100 µM	> 100	> 100	> 100	> 100 µM	> 100	> 100 µM	> 100	> 100 µM										
CC(C)c1ccc2c(c1)[C@@]1(C)CC[C@H](C)C(C)(C)C1CC2 (some centres not stated)	39.6 µM	56.3	41.3	33.4	94.7 µM	31.3	38.4 µM	32.6	38.3 µM										
O=C(CSc1nc2ccc(Cl)cc2c(=O)n1-c1ccccc1)N=Nc1c(O)[nH]c2ccc(F)cc12	15.2 µM	7.53	8.73	4.45	5.56 µM	5.69	11.8 µM	4.1	14.9 µM										
Clc1ccc(NCc2nnc(COc3ccc(OCc4nnc(CNc5ccc(Cl)cc5)o4)c(Cl)c3)o2)cc1		> 100	> 100	> 100		> 100	> 100 µM	> 100	> 100 µM										
C/C(=C\CNc1ncnc2nc(Cl)[nH]c12)CO	> 100 µM	> 100	> 100	> 100	> 100 µM	> 100	> 100 µM	> 100	> 100 µM										
CCOC(=O)C(C)OC(=O)c1ccc(C)cc1 (configuration not stated)	> 100 µM		> 100		> 100 µM		> 100 µM	> 100			> 100	> 100							
NCCCCN	> 100 µM		> 100	> 100	> 100 µM	31.4	38.6 µM	> 100	> 100 µM										
COc1cccc(/C=N/[N-]C(N)=O)c1[O-].[Cu+2].[OH3+].c1cnc2c(c1)ccc1cccnc12	21.6 µM		49.1	20.2	> 100 µM		47.1 µM	40.3	51.2 µM			> 100							
COC(=N)C(C)C	> 100 µM		> 100		> 100 µM		> 100 µM	> 100	> 100 µM		> 100	> 100							
C[C@H](Nc1ccc(C#N)n(C)c1=O)c1cc2cc(Cl)ccc2[nH]c1=O	> 100 µM		> 100		64.1 µM	88.7	> 100 µM	> 100	94.3 µM	18.6			40.2	33.5	26.9	28.6	38.3	27	
CCOC(=O)C(=CNC(Cc1c[nH]c2ccccc12)C(=O)OC)C(=O)OCC (configuration not stated)	> 100 µM				> 100 µM			> 100	> 100 µM		> 100	> 100							
O=CC(O)C(O)C(O)COc1cc(CO)cc2c1C(=O)c1ccccc1C2=O (configuration not stated)	> 100 µM		> 100	> 100	> 100 µM		> 100 µM	> 31.6	> 100 µM		> 100	> 100							
C=C1CCCC(C)(C)[C@@H]1CC/C(C)=C/Cn1c2cccc(=O)c-2nc2ccccc21	9.57 µM and 3.55 µM		4.53		70.7 µM and 9.78 µM		45.4 µM and 10.4 µM		26.9 µM and 4.16 µM	5.55	> 100		3.01		3.93		7.96		4.35
CC(C)(C)OC(=O)N1C(C2=COc3ccccc3O2)=COc2cccnc21	4.01 µM	4.68	3.16	3.66	7 µM	3.67	3.97 µM	3.19	3.99 µM										

— PubChem BioAssay (NCI)
